The source of these data is patent US20250179032A1, “HETEROCYCLIC INHIBITORS OF GLUT9 FOR TREATMENT OF DISEASE” (HORIZON THERAPEUTICS IRELAND DAC, priority 2022, published 2025).

Molecules are shown by their SMILES.

The target of one experiment is T1, H. sapiens SLC2A9 variant 2 (GLUT9B) (Homo sapiens, UniProt Q9NRM0).
T1 sequence (Q9NRM0 1-511 isoform Q9NRM0-2): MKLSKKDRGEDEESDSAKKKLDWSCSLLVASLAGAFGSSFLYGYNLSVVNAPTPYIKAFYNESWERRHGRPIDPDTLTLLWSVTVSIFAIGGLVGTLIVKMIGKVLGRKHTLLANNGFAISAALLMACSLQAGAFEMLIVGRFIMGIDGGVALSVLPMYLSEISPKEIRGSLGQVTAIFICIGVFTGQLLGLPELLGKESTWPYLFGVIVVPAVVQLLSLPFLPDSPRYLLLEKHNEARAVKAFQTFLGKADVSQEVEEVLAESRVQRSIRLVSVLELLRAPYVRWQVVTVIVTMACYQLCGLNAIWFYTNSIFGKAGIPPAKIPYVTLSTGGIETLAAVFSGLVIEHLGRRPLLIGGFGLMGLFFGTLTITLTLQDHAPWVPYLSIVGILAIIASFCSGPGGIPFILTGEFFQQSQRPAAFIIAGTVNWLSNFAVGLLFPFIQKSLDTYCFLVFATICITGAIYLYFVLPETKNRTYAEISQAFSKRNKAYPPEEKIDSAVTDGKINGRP
Briefly: GLUT9 functional assay: uric acid uptake in HEK293T cells, allantoin formation by MS/MS as proxy of GLUT9B inhibition. The experiment is classed as cell-based. The note with it: 15 minute assay; HEK293T cells stably expressing GLUT9B and transiently A. oryzae uricase; uric acid 0.3 mM, 37° C.; read-out: 15 min IC50. Put shortly:
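HEK293T cells stably expressing human GLUT9B and transiently expressing A. oryzae uricase, exposed across a 12-point curve to 0.3 mM uric acid (Km) in sodium gluconate buffer pH 7.4 for 15 or 60 min at 37° C. Allantoin in lysates quantified by RapidFire MS/MS (positive ion) against a matrix-matched standard curve as proxy for uptake.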
Usually IC50 stands for the midpoint of a concentration-inhibition curve. On to `COCCCc1cnc(-c2cc(C(F)(F)F)c3occc3c2)c(N2CCC(C(=O)O)CC2)n1` [Compound 237, 1-(6-(3-methoxypropyl)-3-(7-(trifluoromethyl)benzofuran-5-yl)pyrazin-2-yl)piperidine-4-carboxylic acid], for which the IC50 was above 2000 nM.

Still in this experiment, the particulars now being: 60 minute assay; HEK293T cells stably expressing GLUT9B and transiently A. oryzae uricase; uric acid 0.3 mM, 37° C.; read-out: 60 min IC50.
In the case of `COCCCc1cnc(-c2cccc3cn(C)nc23)c(N2CCC(C(=O)O)CC2)n1` [Compound 213, 1-(6-(3-methoxypropyl)-3-(2-methyl-2H-indazol-7-yl)pyrazin-2-yl)piperidine-4-carboxylic acid], the half-inhibitory concentration (IC50) was above 2000 nM. The same measure, in the same setting: as for `COCCCc1cnc(-c2ccnc3c2ccn3C)c(N2CCC(C(=O)O)CC2)n1` [Compound 214, 1-(6-(3-methoxypropyl)-3-(1-methyl-1H-pyrrolo[2,3-b]pyridin-4-yl)pyrazin-2-yl)piperidine-4-carboxylic acid], the figure is above 2000 nM. Still for that read-out and setting: as for `COCCCc1cnc(-c2cccc3nn(C)cc23)c(N2CCC(C(=O)O)CC2)n1` [Compound 215, 1-(6-(3-methoxypropyl)-3-(2-methyl-2H-indazol-4-yl)pyrazin-2-yl)piperidine-4-carboxylic acid], the figure is above 2000 nM.

For `COCCCc1cnc(-c2cnc3c(c2)NCCO3)c(N2CCC(C(=O)O)CC2)n1` [Compound 216, 1-(3-(2,3-dihydro-1H-pyrido[2,3-b][1,4]oxazin-7-yl)-6-(3-methoxypropyl)pyrazin-2-yl)piperidine-4-carboxylic acid], the IC50 was above 2000 nM. Still for that read-out and setting: the result for `COCCCc1cnc(-c2cnc3c(cnn3C)c2)c(N2CCC(C(=O)O)CC2)n1` [Compound 217, 1-(6-(3-methoxypropyl)-3-(1-methyl-1H-pyrazolo[3,4-b]pyridin-5-yl)pyrazin-2-yl)piperidine-4-carboxylic acid] reads above 2000 nM.

In the case of `COCCCc1cnc(-c2cnc3nn(C)cc3c2)c(N2CCC(C(=O)O)CC2)n1` [Compound 218, 1-(6-(3-methoxypropyl)-3-(2-methyl-2H-pyrazolo[3,4-b]pyridin-5-yl)pyrazin-2-yl)piperidine-4-carboxylic acid], the IC50 was above 2000 nM. Same read-out and setting: as for `COCCCc1cnc(-c2cnc3c(c2)ncn3C)c(N2CCC(C(=O)O)CC2)n1` [Compound 219, 1-(6-(3-methoxypropyl)-3-(3-methyl-3H-imidazo[4,5-b]pyridin-6-yl)pyrazin-2-yl)piperidine-4-carboxylic acid], the figure is above 2000 nM; as for `COCCCc1cnc(-c2ccnc3cc(OC)ccc23)c(N2CCC(C(=O)O)CC2)n1` [Compound 221, 1-(6-(3-methoxypropyl)-3-(7-methoxyquinolin-4-yl)pyrazin-2-yl)piperidine-4-carboxylic acid], above 2000 nM. Same read-out and setting: as for `COCCCc1cnc(-c2ccnc3cc(F)c(OC)cc23)c(N2CCC(C(=O)O)CC2)n1` [Compound 222, 1-(3-(7-fluoro-6-methoxyquinolin-4-yl)-6-(3-methoxypropyl)pyrazin-2-yl)piperidine-4-carboxylic acid], the figure is above 2000 nM. `COCCCc1cnc(-c2cc3ccoc3c(F)c2F)c(N2CCC(C(=O)O)CC2)n1` [Compound 223, 1-(3-(6,7-difluorobenzofuran-5-yl)-6-(3-methoxypropyl)pyrazin-2-yl)piperidine-4-carboxylic acid]: the IC50 was below 500 nM. Same read-out and setting: the result for `COCCCc1cnc(-c2cc(Cl)c3occc3c2)c(N2CCC(C(=O)O)CC2)n1` [Compound 224, 1-(3-(7-chlorobenzofuran-5-yl)-6-(3-methoxypropyl)pyrazin-2-yl)piperidine-4-carboxylic acid] reads below 500 nM; that for `COCCCc1cnc(-c2cc(F)c3sccc3c2)c(N2CCC(C(=O)O)CC2)n1` [Compound 225, 1-(3-(7-fluorobenzo[b]thiophen-5-yl)-6-(3-methoxypropyl)pyrazin-2-yl)piperidine-4-carboxylic acid], below 500 nM; that for `COCCCc1cnc(-c2ccc3sccc3c2)c(N2CCC(C(=O)O)CC2)n1` [Compound 226, 1-(3-(benzo[b]thiophen-5-yl)-6-(3-methoxypropyl)pyrazin-2-yl)piperidine-4-carboxylic acid], below 500 nM.

In the case of `COCCCCc1cnc(-c2cc(F)c3occc3c2)c(N2CCC(C(=O)O)CC2)n1` [Compound 227, 1-(3-(7-fluorobenzofuran-5-yl)-6-(4-methoxybutyl)pyrazin-2-yl)piperidine-4-carboxylic acid], the IC50 was below 500 nM. Still for that read-out and setting: the result for `COCCCCCc1cnc(-c2cc(F)c3occc3c2)c(N2CCC(C(=O)O)CC2)n1` [Compound 228, 1-(3-(7-fluorobenzofuran-5-yl)-6-(5-methoxypentyl)pyrazin-2-yl)piperidine-4-carboxylic acid] reads below 500 nM; that for `COCCCc1cnc(-c2ccc(S(C)(=O)=O)cc2)c(N2CCC(C(=O)O)CC2)n1` [Compound 230, 1-(6-(3-methoxypropyl)-3-(4-(methylsulfonyl)phenyl)pyrazin-2-yl)piperidine-4-carboxylic acid], below 500 nM; that for `COCCCc1cnc(-c2ccc3c(c2)COC3=O)c(N2CCC(C(=O)O)CC2)c1` [Compound 232, 1-(5-(3-methoxypropyl)-2-(1-oxo-1,3-dihydroisobenzofuran-5-yl)pyridin-3-yl)piperidine-4-carboxylic acid], below 500 nM.

As to `COCCCc1cnc(-c2ccc3c(c2)CCS3(=O)=O)c(N2CCC(C(=O)O)CC2)n1` [Compound 233, 1-(3-(1,1-dioxido-2,3-dihydrobenzo[b]thiophen-5-yl)-6-(3-methoxypropyl)pyrazin-2-yl)piperidine-4-carboxylic acid], the half-maximal inhibitory concentration (IC50) was above 2000 nM. Turning to `COCCCc1cnc(-c2ccc3c(c2)CCCS3(=O)=O)c(N2CCC(C(=O)O)CC2)n1` [Compound 234, 1-(3-(1,1-dioxidothiochroman-6-yl)-6-(3-methoxypropyl)pyrazin-2-yl)piperidine-4-carboxylic acid], the half-inhibitory concentration (IC50) is above 2000 nM. Same read-out and setting: the result for `COCCCc1cnc(-c2cc(OC(F)(F)F)c3occc3c2)c(N2CCC(C(=O)O)CC2)n1` [Compound 238, 1-(6-(3-methoxypropyl)-3-(7-(trifluoromethoxy)benzofuran-5-yl)pyrazin-2-yl)piperidine-4-carboxylic acid] reads 500 to 2000 nM; that for `COCCCc1cnc(-c2cc(C)c3occc3c2)c(N2CCC(C(=O)O)CC2)n1` [Compound 239, 1-(6-(3-methoxypropyl)-3-(7-methylbenzofuran-5-yl)pyrazin-2-yl)piperidine-4-carboxylic acid], below 500 nM. Still for that read-out and setting: the result for `COCCCc1cnc(-c2cc(C(F)F)c3occc3c2)c(N2CCC(C(=O)O)CC2)n1` [Compound 240, 1-(3-(7-(difluoromethyl)benzofuran-5-yl)-6-(3-methoxypropyl)pyrazin-2-yl)piperidine-4-carboxylic acid] reads below 500 nM; that for `COCCCc1cnc(-c2ccc3occc3n2)c(N2CCC(C(=O)O)CC2)n1` [Compound 241, 1-(3-(furo[3,2-b]pyridin-5-yl)-6-(3-methoxypropyl)pyrazin-2-yl)piperidine-4-carboxylic acid], above 2000 nM.

As for `COCCCc1cnc(-c2ccc3occ(C)c3c2)c(N2CCC(C(=O)O)CC2)n1` [Compound 242, 1-(6-(3-methoxypropyl)-3-(3-methylbenzofuran-5-yl)pyrazin-2-yl)piperidine-4-carboxylic acid], the IC50 fell in the range of 500 to 2000 nM.

In the case of `COCCCc1cnc(-c2cc(F)c3occc3c2)c(N2CCCC(C(=O)O)CC2)n1` (stereo not shown) [Compound 243, 1-(3-(7-fluorobenzofuran-5-yl)-6-(3-methoxypropyl)pyrazin-2-yl)azepane-4-carboxylic acid], the IC50 is below 500 nM. The same measure, in the same setting: the result for `COCCCc1cnc(-c2cc(F)c3c(c2)OCO3)c(N2CCCC(C(=O)O)CC2)n1` (stereo not shown) [Compound 244, 1-(3-(7-fluorobenzo[d][1,3]dioxol-5-yl)-6-(3-methoxypropyl)pyrazin-2-yl)azepane-4-carboxylic acid] reads below 500 nM; that for `COCCCc1cnc(-c2cc(F)c3occc3c2)c(N2CCCC(C(=O)O)CC2)c1` (stereo not shown) [Compound 245, 1-(2-(7-Fluorobenzofuran-5-yl)-5-(3-Methoxypropyl)Pyridin-3-yl)azepane-4-carboxylic acid], below 500 nM. With `COCCCc1cnc(-c2cc(F)c3c(c2)OCO3)c(N2CCCC(C(=O)O)CC2)c1` (stereo not shown) [Compound 246, 1-(2-(7-fluorobenzo[d][1,3]dioxol-5-yl)-5-(3-methoxypropyl)pyridin-3-yl)azepane-4-carboxylic acid], the half-maximal inhibitory concentration (IC50) is below 500 nM. The same measure, in the same setting: as for `COCCCc1cnc(-c2ccc3c(c2)OCO3)c(N2CCC3(CC(C(=O)O)C3)C2)c1` (stereo not shown) [Compound 247, 6-(2-(benzo[d][1,3]dioxol-5-yl)-5-(3-methoxypropyl)pyridin-3-yl)-6-azaspiro[3.4]octane-2-carboxylic acid], the figure is 500 to 2000 nM; as for `COCCCc1cnc(-c2ccc3c(c2)OCO3)c(N2CC3(CC(C(=O)O)CO3)C2)c1` (stereo not shown) [Compound 249, 2-(2-(benzo[d][1,3]dioxol-5-yl)-5-(3-methoxypropyl)pyridin-3-yl)-5-oxa-2-azaspiro[3.4]octane-7-carboxylic acid], above 2000 nM.
